Results reported in PubChem BioAssay (NCI).
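48-hour exposure; five concentrations; linearly interpolated endpoints. The concentration for 50% growth inhibition is given as GI50. The concentration for full growth arrest is given as TGI.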

Legend:
Assay in all cases: NCI-60 cell line screen, 48 h
UACC-62 melanoma = test system: UACC-62 melanoma
U251 CNS = test system: U251 CNS
ACHN renal = test system: ACHN renal
TK-10 renal = test system: TK-10 renal
T-47D breast = test system: T-47D breast
SF-268 CNS = test system: SF-268 CNS
K-562 leukemia = test system: K-562 leukemia
NCI-H226 lung = test system: NCI-H226 lung
LOX IMVI melanoma = test system: LOX IMVI melanoma
M14 melanoma = test system: M14 melanoma

Row | SMILES | GI50 (UACC-62 melanoma) | TGI (UACC-62 melanoma) | GI50 (U251 CNS) | TGI (U251 CNS) | GI50 (ACHN renal) | TGI (ACHN renal) | GI50 (TK-10 renal) | TGI (TK-10 renal) | GI50 (T-47D breast) | TGI (T-47D breast) | GI50 (SF-268 CNS) | TGI (SF-268 CNS) | GI50 (K-562 leukemia) | TGI (K-562 leukemia) | GI50 (NCI-H226 lung) | TGI (NCI-H226 lung) | GI50 (LOX IMVI melanoma) | TGI (LOX IMVI melanoma) | GI50 (M14 melanoma) | TGI (M14 melanoma)
1 | COc1cc(/C=C2\C(=O)N(c3ccccc3)c3ccccc32)cc(OC)c1OC | 7.12 µM | 21.6 µM | 3.87 µM | 15.3 µM | 6.32 µM | 20.7 µM | 16.3 µM | 37.3 µM | 5.02 µM | > 100 µM | 4.32 µM | 15.3 µM | 3.04 µM | > 100 µM | 9.69 µM | 29.3 µM | 2.24 µM | 4.61 µM | 11.3 µM | 26.9 µM
2 | CCCC(=O)Nc1ccc2c(c1)CN1C(=O)c3ccccc3C1=N2 | – | > 100 µM | – | > 100 µM | – | > 100 µM | – | > 100 µM | – | > 100 µM | – | > 100 µM | – | – | – | > 100 µM | – | > 100 µM | – | > 100 µM
3 | CSC1=Nc2c(c(C)c(C)n2COC(CO)CO)C2=NC(=O)CC(C)N12 (centres undefined) | > 100 µM | > 100 µM | > 100 µM | > 100 µM | > 100 µM | > 100 µM | > 100 µM | > 100 µM | > 100 µM | > 100 µM | > 100 µM | > 100 µM | > 100 µM | > 100 µM | > 100 µM | > 100 µM | > 100 µM | > 100 µM | – | –
4 | Cc1c(-c2nnc(-c3ccc(F)cc3)o2)nnn1-c1ccnc2c(C(F)(F)F)cccc12 | > 100 µM | > 100 µM | 30.4 µM | > 100 µM | 30.8 µM | > 100 µM | 32.2 µM | 98.8 µM | 20 µM | > 100 µM | 26.7 µM | > 100 µM | 19.8 µM | > 100 µM | 67.2 µM | > 100 µM | 44.5 µM | > 100 µM | – | –
5 | CC(C)n1c(=O)n(C)c2cnc3cc(F)c(-c4ccc(OCCCN5CCCCC5)nc4)cc3c21 | 14.1 µM | 29.3 µM | 13.5 µM | 37.6 µM | 16.2 µM | 76.8 µM | 11.3 µM | 45.4 µM | 9.65 µM | 38.8 µM | 11.9 µM | 40.2 µM | – | – | 4.99 µM | 24.4 µM | 4.13 µM | 16.6 µM | 14.6 µM | 31.6 µM
6 | COc1ccc(CCN2CCC(Nc3nc4ccccc4n3Cc3ccc(F)cc3)CC2)cc1 | 1.41 µM | 2.8 µM | 1.47 µM | 2.89 µM | 1.55 µM | 2.93 µM | 1.82 µM | 3.38 µM | 1.97 µM | 4.38 µM | 1.56 µM | 2.95 µM | – | – | 1.55 µM | 3.09 µM | 1.38 µM | 2.79 µM | 1.72 µM | 3.15 µM
7 | N#Cc1c(N)nc(NCc2ccccc2)c(C#N)c1-c1ccccc1Cl | 12.4 µM | 60.2 µM | 2.46 µM | 10.3 µM | 5.73 µM | 62.7 µM | 22.3 µM | 66 µM | 67.3 µM | > 100 µM | 12.6 µM | 58.5 µM | – | – | 2.39 µM | 14.5 µM | 4.75 µM | 35.9 µM | 23.2 µM | > 100 µM
